Measurements taken from patent US12378222B2, “NLRP3 inflammasome inhibitors” (Novartis AG, priority 2022, dated 2025).
pIC50: −log10 of the molar value. Each block holds one molecule with its values, some of them ahead of it.

Key:
Assay type in all cases: cell-based
hERG [1] = target: T1, hERG (Homo sapiens, UniProt Q12809); test: hERG electrophysiological inhibition assay using the Qube technology (automated patch clamp, CHO cells); design: expressed in transfected cells; host or cells: CHO (T-REX) cells, tetracycline-induced; settings: human, pH 7.4; 30 μM, CHO (T-REx) hERG cells, 35° C.
Protocol: (§1) Chinese hamster ovary (CHO) cell line, overexpressing the alpha-subunit of the hERG channel under the control of tetracycline-regulated promoter, was created using commercially available T-REX™ system (Invitrogen). CHO (T-REX™) hERG cells were maintained in Ham's F-12 nutrient medium (Life Tech) supplemented with 10% fetal bovine serum (HyClone), 1% penicillin-streptomycin, 10 μg/mL Blasticidin and 50 μg/mL Zeocin (all from Life Technologies, Thermo Fisher Scientific). For hERG expression induction, 1 μg/ml tetracycline (Sigma-Aldrich) was added to the growth media 24 hours before the current recording. To prepare the cell suspension for Qube experiments, cells were dislodged from culture flask by incubation in Detachin (Genlantis) at 37° C. for approximately 5 min, and resuspended in CHO serum free media (CHO-SFM II, Life Technologies) at a density of 2-3 million cells per mL.
(§2) Patch clamp experiments were performed on the Qube APC (automated patch clamp) platform (Sophion Bioscience A/S, Ballerup, Denmark) using the 384X 10-hole chip at 35° C. Intracellular KF-Ringer's solution consisted of (in mM) 120 KF, 20 KCl, […] ethylene glycol-bis(2-aminoethylether)-N,N,N′,N′-tetraacetic acid (EGTA) and 10 (4-(2-hydroxyethyl)-1-piperazineethanesulfonic acid (HEPES), pH at 7.2 with KOH. Extracellular solution consisted of (in mM) 145 NaCl, 4 KCl, 2 CaCl2, 1 MgCl2, 10 HEPES, 10 Glucose and 0.3% dimethyl sulfoxide (DMSO), pH at 7.4 with NaOH. The hERG current was elicited by applying the following voltage protocol: cells are held at −90 mV resting membrane potential for 100 msec, then clamped at −50 mV for 100 msec for leak estimation, depolarized to +20 mV for 4 sec (peak current measurement) and finally repolarized to −50 mV for 4 sec (tail current recording) before returning to the holding potential of −90 mV. The data are sampled at 10 KHz, with cutoff at 2 kHz, and filtered using the Bessel filter. The protocol was repeated every 15 s, 30 times before and 30 times after a compound application.
All compounds were prepared as 10 mM stock in 100% DMSO, then serially dilutes 1:3 down in Labcyte 384-well Echo Qualified LDV (low diamond volume) microplate. […]
(§3) The results were initially reviewed using the Qube specific Sophion Analyzer software (Sophion Bioscience), then analyzed using Data Analysis and Visualization in Discovery (DAVID) software package (Novartis AG). The compound effect on hERG current inhibition (normalized percentage of inhibition) was calculated as % Inh=(Icompound−Ivehicle)/Ivehicle*−100, where Icompound and Ivehicle are the averages of the last three leak-corrected tail hERG currents […] a compound application, respectively. […]

[2] = target: T2, alpha-subunit of the hERG channel (Homo sapiens, UniProt Q12809); test: as above
T2 construct: expressed in transfected cells; host or cells: CHO (T-REX) cells, tetracycline-induced
Protocol: as §1, §2
All compounds were prepared as 10 mM stock in 100% DMSO, then serially dilutes 1:3 down in Labcyte 384-well Echo Qualified LDV (low […] volume) microplate. The Qube assay plate was prepared by transferring 0.15-0.3 μL of a compound from the serial dilution plate to the 384-well Greiner plate using Labcyte Echo 650 liquid handler (Beckman). Right before the experiment, the compounds in each well were further diluted in extracellular solution using Biomek i7 liquid handler (Beckman) to create the final concentrations of 0.37, 1.1, 3.3, 10, 15 and 30 μM (1:333 dilution to keep the final DMSO concentration in all samples ≤0.3%). Amitriptyline hydrochloride (positive control) and DMSO (0.3%, vehicle control) were included in each plate.
as §3

[3] = system: Pam3CSK4-stimulated, NF-κB-dependent TNF-α secretion; test: TNF-α secretion assay (counter screen, THP-1 cells, HTRF); settings: Homo sapiens, undifferentiated THP-1 cells, 3 h, at least 2 replicates
Protocol: Monocytic THP-1 cells were maintained according to providers' instructions in RPMI media as described above. Undifferentiated cells were plated at 50,000 cells per well in a 384-well flat-bottom cell culture plates (Greiner, #781986), and allowed to rest overnight. Experimental compounds were prepared and added as described above. TNF-α secretion was triggered by the addition of either 1 μg/mL LPS (Sigma, #L4391) or 100 ng/ml Pam3CSK4 (Invivogen, #tlrl-pms) depending on the experiment, and cells were incubated for 3 h. 10 μL supernatant was removed, and TNF-α levels were monitored using an HTRF assay (CisBio, #62TNFPEC) according to manufacturers' instructions. Viability was monitored as
IC50 values were calculated from the plot of percentage of inhibition versus the inhibitor concentration by a logistics fit according to: y=A2+(A1−A2)/(1+(x/IC50)^p) where y is the %-inhibition at the inhibitor concentration, x. A1 is the lowest inhibition value, i.e. 0%, and A2 the maximum inhibition value, i.e. 100%. The exponent, p, is the Hill coefficient. The curve fitting was conducted with an internally developed software suite. NLRP3-dependent IL-1β secretion was stimulated in PMA-differentiated THP-1 cells by the addition of nigericin, and cytokines were measured in the […] after 3 h. As discussed above, activation of the NLRP3 inflammasome requires both an NF-κB-dependent priming step and the addition of a NLRP3 activator. […] Data for IL-1β secretion was calculated as the arithmetic mean of at least 3 individual experiments, and TNF-α secretion data was consistent across at least 2 individual replicates.

NLRP3 inflammasome = target: T3, NLRP3 inflammasome (Homo sapiens, UniProt Q96P20); test: IL-1β secretion assay (nigericin-activated, PMA-differentiated THP-1 cells, HTRF); settings: 15 μM nigericin, 3 h, arithmetic mean of at least 3 experiments
T3 construct: NLRP3-dependent IL-1β secretion was stimulated in PMA-differentiated THP-1 cells by the addition of nigericin; host or cells: THP-1 cells, PMA-differentiated

hERG [4] = target: T1, hERG; test: hERG channel test using the QPatch technology (automated patch clamp, CHO cells); design: host or cells: CHO cells; settings: for inhibition at 4 min, 30 µM: human, CHO cells stably expressing hERG channels, pH 7.4, highest test concentration 30 μM
Protocol: CHO cells (AVIVA Biosciences Corp, San Diego, CA) stably expressing hERG channels were patched using a QPatch-HT automated patch clamp instrument (Sophion Bioscience A/S, Ballerup, Denmark) in single hole mode. The intracellular solution consisted of 120 mM KCl, 5 mM CaCl2, 2 mM MgCl2, 10 mM ethylene glycolbis (2-aminoethylether)-N,N,N′,N′-tetraacetic acid (EGTA), 10 mM (4-(2-hydroxyethyl)-1-piperazineethanesulfonic acid (HEPES), and 4 mM dipotassium adenosine-5′-triphosphate (ATP-K2), pH adjusted to 7.2 using KOH. The extracellular solution consisted of 145 mM NaCl, 4 mM KCl, 2 CaCl2, 1 mM MgCl2, 10 mM HEPES, and 0.3% dimethyl sulfoxide (DMSO), adjusted to pH 7.4 using NaOH. All measurements were performed at room temperature, and the blockers were pre-incubated for 4 min. The cells were voltage clamped at −90 mV and the hERG current was activated using a voltage step to +20 mV for 4 s. The hERG tail currents were measured by stepping down to −50 mV for 4 s before returning to −90 mV. This protocol was repeated every 20 s. The peak hERG current was automatically corrected by subtracting the leak current, which was estimated by measuring the mean current during a short depolarizing step to −50 mV from the resting membrane potential just prior to the long depolarizing step to • +20 mV at the beginning of the voltage protocol. Test articles were diluted using DMSO stock solutions and the extracellular solution. […] The effect of the test article on the hERG tail current was assessed and 1, 10 and 30 μM and a positive control (amitriptiline, 1, 3 and μM) was included on each plate.

[5] = CHO (T-REx) hERG cells, 35° C., tail current
[6] = CHO cells stably expressing hERG, room temperature

T2 sequence (Q12809 whole entry): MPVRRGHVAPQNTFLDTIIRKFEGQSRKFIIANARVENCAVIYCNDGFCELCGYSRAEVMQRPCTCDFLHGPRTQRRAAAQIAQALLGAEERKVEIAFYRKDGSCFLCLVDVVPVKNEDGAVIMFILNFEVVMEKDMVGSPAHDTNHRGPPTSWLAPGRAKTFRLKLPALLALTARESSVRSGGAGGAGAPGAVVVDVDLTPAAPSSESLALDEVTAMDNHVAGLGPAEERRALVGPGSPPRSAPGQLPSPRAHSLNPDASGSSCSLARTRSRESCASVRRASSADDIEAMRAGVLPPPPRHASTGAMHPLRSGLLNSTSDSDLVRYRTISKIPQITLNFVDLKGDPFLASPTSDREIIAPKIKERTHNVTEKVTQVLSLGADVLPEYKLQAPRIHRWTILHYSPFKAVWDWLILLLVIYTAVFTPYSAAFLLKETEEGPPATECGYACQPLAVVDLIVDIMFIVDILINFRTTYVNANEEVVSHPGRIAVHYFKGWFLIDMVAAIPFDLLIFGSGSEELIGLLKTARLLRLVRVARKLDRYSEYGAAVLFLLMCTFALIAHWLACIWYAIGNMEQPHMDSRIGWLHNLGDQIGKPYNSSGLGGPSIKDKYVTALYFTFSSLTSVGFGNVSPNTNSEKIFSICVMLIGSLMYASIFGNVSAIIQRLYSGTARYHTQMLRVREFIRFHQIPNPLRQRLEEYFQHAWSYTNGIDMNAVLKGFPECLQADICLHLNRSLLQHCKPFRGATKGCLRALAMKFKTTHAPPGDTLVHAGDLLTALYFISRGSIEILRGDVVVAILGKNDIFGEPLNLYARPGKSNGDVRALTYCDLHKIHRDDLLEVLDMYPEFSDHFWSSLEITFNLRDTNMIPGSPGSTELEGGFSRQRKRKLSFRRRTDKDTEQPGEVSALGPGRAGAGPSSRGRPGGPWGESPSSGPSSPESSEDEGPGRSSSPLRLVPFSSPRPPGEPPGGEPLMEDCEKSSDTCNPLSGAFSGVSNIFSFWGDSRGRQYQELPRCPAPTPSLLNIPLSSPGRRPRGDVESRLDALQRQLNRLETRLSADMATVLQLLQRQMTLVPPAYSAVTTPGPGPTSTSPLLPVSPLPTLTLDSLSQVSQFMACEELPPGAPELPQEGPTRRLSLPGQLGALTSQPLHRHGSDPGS
T1 sequence (Q12809 whole entry): as above
T3 sequence (Q96P20 whole entry): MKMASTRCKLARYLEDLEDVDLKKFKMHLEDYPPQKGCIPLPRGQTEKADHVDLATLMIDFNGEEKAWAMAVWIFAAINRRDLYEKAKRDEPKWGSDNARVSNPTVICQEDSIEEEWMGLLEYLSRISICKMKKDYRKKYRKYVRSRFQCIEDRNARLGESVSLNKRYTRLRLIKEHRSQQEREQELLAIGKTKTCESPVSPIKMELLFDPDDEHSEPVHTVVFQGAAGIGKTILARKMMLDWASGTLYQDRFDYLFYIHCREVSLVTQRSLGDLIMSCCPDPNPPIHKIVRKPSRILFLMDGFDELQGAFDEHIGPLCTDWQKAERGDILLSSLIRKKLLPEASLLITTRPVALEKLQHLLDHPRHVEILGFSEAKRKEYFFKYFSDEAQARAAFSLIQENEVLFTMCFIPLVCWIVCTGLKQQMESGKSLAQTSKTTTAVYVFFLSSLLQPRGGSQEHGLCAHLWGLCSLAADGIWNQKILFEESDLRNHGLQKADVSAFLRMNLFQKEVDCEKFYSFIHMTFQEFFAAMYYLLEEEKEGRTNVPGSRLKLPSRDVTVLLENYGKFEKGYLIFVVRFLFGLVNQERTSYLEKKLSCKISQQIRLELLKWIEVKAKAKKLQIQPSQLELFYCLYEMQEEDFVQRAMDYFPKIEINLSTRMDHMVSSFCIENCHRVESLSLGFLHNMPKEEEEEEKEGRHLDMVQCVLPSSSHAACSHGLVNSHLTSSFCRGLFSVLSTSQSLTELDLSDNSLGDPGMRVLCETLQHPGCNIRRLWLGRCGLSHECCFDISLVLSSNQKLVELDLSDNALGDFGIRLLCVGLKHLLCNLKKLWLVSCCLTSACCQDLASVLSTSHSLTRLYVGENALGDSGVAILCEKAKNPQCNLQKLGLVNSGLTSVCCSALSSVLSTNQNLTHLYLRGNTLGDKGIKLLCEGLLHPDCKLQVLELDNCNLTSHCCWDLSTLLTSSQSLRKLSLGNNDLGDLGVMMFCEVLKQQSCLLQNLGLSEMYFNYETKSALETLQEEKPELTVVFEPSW

pIC50 (NLRP3 inflammasome): 8.43
Compound: Cc1cc(C(F)(F)F)cc(O)c1-c1nnc(N[C@@H]2CCCN(C)C2)c2c1COC2 [Reference ex. 3, 3-methyl-2-(4-(((R)-1-methylpiperidin-3-yl)amino)-5,7-dihydrofuro[3,4-d]pyridazin-1-yl)-5-(trifluoromethyl)phenol]
inhibition at 7.5 min, 30 µM (hERG [1]): 49.8%
pIC50 [2, 5]: < 4.52
pIC50 [3]: < 4.00

pIC50 (NLRP3 inflammasome): 9.14
Compound: Cc1cc(C(F)(F)F)cc(O)c1-c1cc(CO)c(N[C@@H]2CCCN(C)C2)nn1 [Example 1, (R)-2-(5-(hydroxymethyl)-6-((1-methylpiperidin-3-yl)amino)pyridazin-3-yl)-3-methyl-5-(trifluoromethyl)phenol]
inhibition at 7.5 min, 30 µM (hERG [1]): 40.9%
pIC50 (hERG [4]; CHO cells stably expressing hERG, room temperature, tail current, tested at 1, 10 and 30 μM): < 4.52
hERG QPatch IC50 compared with reference examples 1 and 2 (hERG [4]; comparison in words): considerably increased
inhibition at 4 min, 30 µM (hERG [4]; [6]): 24.3%
pIC50 [2, 5]: < 4.52
hERG Qube IC50 compared with reference examples 1 and 2 ([2]; comparison in words): considerably increased
pIC50 [3]: < 4.00

Compound: Cc1cc(-c2c(C)cc(C(F)(F)F)cc2O)nnc1N[C@@H]1CCCN(C)C1 [Reference ex. 1, (R)-3-Methyl-2-(5-methyl-6-((1-methylpiperidin-3-yl)amino)pyridazin-3-yl)-5-(trifluoromethyl)phenol]
inhibition at 7.5 min, 30 µM (hERG [1]): 77.9%
inhibition at 4 min, 30 µM (hERG [4]; [6]): 64.7%
pIC50 (hERG [4]; unit inferred): 4.88
pIC50 ([2]; unit inferred): 5.33
pIC50 [3]: < 4.48

Compound: Cc1cc(C(F)(F)F)cc(O)c1-c1cc(C(F)(F)F)c(N[C@@H]2CCCN(C)C2)nn1 [Reference ex. 2, (R)-3-methyl-2-(6-((1-methylpiperidin-3-yl)amino)-5-(trifluoromethyl)pyridazin-3-yl)-5-(trifluoromethyl)phenol]
inhibition at 7.5 min, 30 µM (hERG [1]): 74.9%
inhibition at 4 min, 30 µM (hERG [4]; [6]): 93.6%
pIC50 (hERG [4]; unit inferred): 5.41
pIC50 ([2]; unit inferred): 5.25
pIC50 [3]: < 4.00
